The term LD50 denotes the dose expected to kill half of the subjects tested.

The values that follow come from patent US4395413A, “Oxime ethers and pharmaceutical compositions containing the same” (Egyt Gyogyszervegyeszeti Gyar, priority 1979, dated 1983).

One series deals with ischiadic nerve of rats. The experiment in a line: local anaesthetic effect on the ischiadic nerve of rats (method of Truant and d'Amato). The format is in vivo. Particulars: for Duration 0.25% / EC50: rats, ischiadic nerve; for Duration 0.25%: 0.25% concentration; for EC50: local anaesthesia; for Relative efficiency: referred to Lidocaine. From the text:
The local anaesthetic effect was investigated on the ischiadic nerve of rats by means of the method of Truant and d'Amato /Truant, A. P. and Wiedling, S.: Acta Chirurg. Scand. 116, 351 /1958//. Lidocaine served as reference substance.
In Table III. below, the relative efficiency referred to Lidocaine and the duration of the effect on application of 0.25% concentrations of Lidocaine are given.

Series [1] is described as follows: analgesic effect on mice (method of Koster). Format: in vivo. Particulars: for ED50: Mus musculus, po; for Therapeutic index: p.o. How it is done:  The analgesic effect was determined on mice by the method of Koster, R.
Anderson, M., De Beer, E. J., Fred.

Series [2] in a line: acute toxicity on white mice (strain CFLP). The settings on record: mouse, in vivo, 4 days observation. How it is done: The acut toxicity of the new compounds according to the invention was determined on white mice of both sexes weighing 18-24 g belonging to the strain CFLP. Administration was effected with an oral or intraperitoneal dosage of 20 ml/kg. After treatment the animals were kept under observation for 4 days.

The test system of a further series is nicotine-lethality. The series is described as follows: inhibition of nicotine-lethality on mice (method of Stone). The format is in vivo. The settings on record: for ED50: Mus musculus, po, read-out: ED50 /p.o./; for Therapeutic index: nicotine-lethality inhibition. As for the experimental part: The inhibition of nicotine-lethality was determined on mice by the method of Stone /Stone, C. A. et al.: Arch. Intern.

Series [3] in a line: blood pressure of waking rats of normal tension, oral. The format is in vivo. The settings on record: orally, 100 mg/kg. As for the experimental part:
(§1) The hypotensive effect of the new compounds was tested on anaesthesized cats. The compound of Example 7, administered in doses of 3 and 5 mg/kg, results in a prolonged decrease of blood pressure of 40 Hgmm. […] This compound, orally tested on waking rats of normal tension in a dosage of 100 mg/kg, results in a decrease of blood pressure of 13 Hgmm.

The next series has as its system noradrenaline. The experiment in a line: noradrenaline antagonistic (alpha-receptor blocking) effect. The format is in vivo, cats.
The next series relates to isoproterenol. The experiment in a line: isoproterenol antagonistic (beta-receptor blocking) effect. The format is in vivo, cats.
A further series has as its system carotid occlusion reflex. The series is described as follows: effect on the carotid occlusion reflex. The format is in vivo, cats. The settings on record: qualitative. How it is done:
as §1

The nature of series [4]: hypotensive effect on anaesthesized cats. The format is in vivo. Particulars: doses of 3 and 5 mg/kg. As for the experimental part:
as §1

In the next series the test system is orthostatic hypotension. The experiment in a line: influence on the orthostatic hypotension. Particulars: qualitative. Format: in vivo.
The mark [5] stands for this setting: po, per os, read-out: LD50 per os.

Each structure is given as a SMILES string. Read-outs that look alike come from different tables or passages of the source.

On to `CCN(CC)CC(=O)Nc1c(C)cccc1C` [Lidocaine, reference compound], for which, in the series with ischiadic nerve of rats, the “Duration 0.25%” value was 24 min, the EC50 is listed as 0.19 % conc and the Relative efficiency worked out at 1.00.
For the compound `CCCCC1CCCCC1=NOCCCN(C)C` (stereo not shown) [Example 3, 2-n-butyl-1-/3'-dimethylaminopropoxyimino/-cyclohexane], in series [1], the ED50 is 45 mg/kg and the Therapeutic index worked out at 9. The LD50 at 96 h in [2] (ip, read-out: LD50 i.p.) was 100 mg/kg. Further, in [2] (setting [5]), the LD50 at 96 h is 430 mg/kg.
In series [1], `CCCCC1CCCCC1=NOCCCN1CCN(Cc2ccccc2)CC1` (stereo not shown) [Example 5, 2-n-butyl-1-[3'-/4"-benzylpiperazinyl/-propoxyimino]-cyclohexane] returned an ED50 of 250 mg/kg and a Therapeutic index of 5.2. In addition, the LD50 at 96 h in series [2] (ip, read-out: LD50 i.p.) was 240 mg/kg. Further, the LD50 at 96 h in [2] (setting [5]) turned out to be 1300 mg/kg.
Regarding `CCCCCC=C1CCCCC1=NOCCCN1CCN(C)CC1` [Example 15, 2-hexylidene-1-[3'-/4"-methylpiperazinyl/propoxyimino]-cyclohexane], the ED50 with nicotine-lethality (mice, p.o., nicotine-lethality) was determined as 190 mg/kg. Moreover, in the series on nicotine-lethality (mice, p.o.), the Therapeutic index turned out to be 16.0. In addition, the LD50 at 96 h in [2] (ip, read-out: LD50 i.p.) was determined as 200 mg/kg; in series [2] (setting [5]), 3000 mg/kg.
The matching figures for `C=CCC1CCCCC1=NOCCCN1CCN(C)CC1` (stereo not shown) [Example 14, 2-allyl-[3'-/4"-methylpiperazinyl/-propoxyimino]-cyclohexane]: 70 mg/kg, 22.0, 310 mg/kg and 1600 mg/kg.
The compound `CCCCC=C1CCCCC1=NOCCCN1CCN(Cc2ccccc2)CC1` [Example 10, 2-pentylidene-1-[3'-/4"-benzylpiperazinyl/-propoxyimino]-cyclohexane] showed an ED50 in series [1] of 140 mg/kg. For the same compound, in series [1], the Therapeutic index was found to be 13.0. Also, the LD50 at 96 h in [2] (ip, read-out: LD50 i.p.) is 160 mg/kg; in series [2] (setting [5]), 1800 mg/kg.
On the same counts, the results for `CCCC=C1CCCCC1=NOCCCN1CCN(Cc2ccccc2)CC1` [Example 8, 2-butylidene-[3'-/4"-benzylpiperazinyl/-propoxyimino]-cyclohexane] are 290 mg/kg, 5, 230 mg/kg and 1450 mg/kg.
`CCCCC1CCCCC1=NOCC(C)CN(C)C` (stereo not shown) [Example 4, 2-n-butyl-1-/2'-methyl-3'-dimethylaminopropoxyimino/-cyclohexane]: in the series on ischiadic nerve of rats, the “Duration 0.25%” value worked out at 31 min, the EC50 is reported as 0.15 % conc and the Relative efficiency was 1.13. Besides, the LD50 at 96 h in [2] (ip, read-out: LD50 i.p.) turned out to be 110 mg/kg. Further, the LD50 at 96 h in series [2] (setting [5]) was determined as 400 mg/kg.
With `CCCCCCCC=C1CCCCC1=NOCCCN1CCN(C)CC1` [Example 16, 2-octylidene-1-[3'-/4"-methylpiperazinyl/propoxyimino]-cyclohexane], the ED50 in series [1] came out at 200 mg/kg; in the series with nicotine-lethality, 150 mg/kg. Besides, the Therapeutic index came to 15.0 in series [1] and 17.6 in the series with nicotine-lethality (mice, p.o.). The LD50 at 96 h in series [2] (ip, read-out: LD50 i.p.) came out at 270 mg/kg; in [2] (setting [5]), 3000 mg/kg.
On to `CCCC=C1CCCCC1=NOCCCN1CCN(C)CC1` [Example 7, 2-butylidene-1-[3'-/4"-methylpiperazinyl/-propoxyimino]-cyclohexane], for which, in series [3], the “decrease of blood pressure” value was found to be 13 Hgmm. The ED50 worked out at 2.3 mg/kg in the series on noradrenaline (Felis catus, iv, read-out: noradrenaline antagonistic i.v. ED50); 155 mg/kg in the series with nicotine-lethality (mice, p.o., nicotine-lethality); 2.5 mg/kg in the series with isoproterenol (Felis catus, iv, read-out: isoproterenol antagonistic i.v. ED50). The alpha-receptor blocking effect entry with noradrenaline (qualitative) is “alpha- and beta-receptor blocking effect”. The compound also registered a Therapeutic index with nicotine-lethality (mice, p.o.) of 10.0. Further, the beta-receptor blocking effect result in the series on isoproterenol (qualitative) was “alpha- and beta-receptor blocking effect”. In addition, the LD50 at 96 h in series [2] (ip, read-out: LD50 i.p.) stood at 330 mg/kg; in [2] (setting [5]) it was 1600 mg/kg. For the same compound, in the series with carotid occlusion reflex, the “effect on the carotid occlusion reflex” value was “decreases the effect on the carotid occlusion reflex”. In addition, in [4], the “prolonged decrease of blood pressure” value was found to be 40 Hgmm. Moreover, in the series with orthostatic hypotension, the “influence on the orthostatic hypotension” value is given as “no influence on the orthostatic hypotension”.
On to `CCCCC1CCCCC1=NOCCN(C)C` (stereo not shown) [Example 1, 2-n-butyl-1-/2'-dimethylaminoethoxyimino/-cyclohexane], for which, in series [1], the ED50 was determined as 320 mg/kg. Also, the LD50 at 96 h in series [2] (ip, read-out: LD50 i.p.) was 135 mg/kg; in series [2] (setting [5]), 580 mg/kg.
For the compound `OC(CCN1CCCCC1)(c1ccccc1)C1CCCCC1` (stereo not shown) [Trihexyphenidyl, reference compound], the ED50 with nicotine-lethality (mice, p.o., nicotine-lethality) came out at 40 mg/kg. This compound also had a Therapeutic index in the series on nicotine-lethality (mice, p.o.) of 9.13.
As for `CCCCC=C1CCCCC1=NOCCCN1CCN(C)CC1` [Example 9, 2-pentylidene-1-[3'-/4"-methylpiperazinyl/-propoxyimino]-cyclohexane], in the series on ischiadic nerve of rats, the “Duration 0.25%” value was found to be 64 min, the EC50 is on record as 0.25 % conc and the Relative efficiency is on record as 0.76. In [1], this compound showed an ED50 of 500 mg/kg and a Therapeutic index of 6. Moreover, the ED50 with nicotine-lethality (mice, p.o., nicotine-lethality) was found to be 150 mg/kg. Moreover, the Therapeutic index with nicotine-lethality (mice, p.o.) was 20.0. Also, the LD50 at 96 h in [2] (ip, read-out: LD50 i.p.) was 200 mg/kg. Moreover, the LD50 at 96 h in series [2] (setting [5]) was determined as 3000 mg/kg.
